From article PMC5619819, “A highly-sensitive high throughput assay for dynamin's basal GTPase activity” (PLoS ONE, 2017)
Where “and” joins values, the source holds several entries; their conditions need not be identical. Equal values may be shown once. Entries after “also recorded” stand apart in the source; their conditions may differ.

Tests used:
[1] = tested on: triple dynamin-1, 2, and 3 knockout cells; set-up: method as in PMID 24046449; settings: cited from earlier work
Dynamin-1 (Dyn1) [2] = biological target: T1, Dynamin-1 (Dyn1) (Homo sapiens, UniProt Q05193); experiment: Lipid nanotube (NT)-stimulated GTPase activity, malachite green assay; assay type: biochemical; settings: 100 nM Dyn1, 300 μM lipid nanotubes, 25 μM GTP, 37°C; read-out: IC50, inhibition of NT-stimulated GTPase activity of Dyn1
T1 construct: made in house; host or cells: Sf9 (Spodoptera frugiperda) insect cells
T1 sequence (Q05193 1-864): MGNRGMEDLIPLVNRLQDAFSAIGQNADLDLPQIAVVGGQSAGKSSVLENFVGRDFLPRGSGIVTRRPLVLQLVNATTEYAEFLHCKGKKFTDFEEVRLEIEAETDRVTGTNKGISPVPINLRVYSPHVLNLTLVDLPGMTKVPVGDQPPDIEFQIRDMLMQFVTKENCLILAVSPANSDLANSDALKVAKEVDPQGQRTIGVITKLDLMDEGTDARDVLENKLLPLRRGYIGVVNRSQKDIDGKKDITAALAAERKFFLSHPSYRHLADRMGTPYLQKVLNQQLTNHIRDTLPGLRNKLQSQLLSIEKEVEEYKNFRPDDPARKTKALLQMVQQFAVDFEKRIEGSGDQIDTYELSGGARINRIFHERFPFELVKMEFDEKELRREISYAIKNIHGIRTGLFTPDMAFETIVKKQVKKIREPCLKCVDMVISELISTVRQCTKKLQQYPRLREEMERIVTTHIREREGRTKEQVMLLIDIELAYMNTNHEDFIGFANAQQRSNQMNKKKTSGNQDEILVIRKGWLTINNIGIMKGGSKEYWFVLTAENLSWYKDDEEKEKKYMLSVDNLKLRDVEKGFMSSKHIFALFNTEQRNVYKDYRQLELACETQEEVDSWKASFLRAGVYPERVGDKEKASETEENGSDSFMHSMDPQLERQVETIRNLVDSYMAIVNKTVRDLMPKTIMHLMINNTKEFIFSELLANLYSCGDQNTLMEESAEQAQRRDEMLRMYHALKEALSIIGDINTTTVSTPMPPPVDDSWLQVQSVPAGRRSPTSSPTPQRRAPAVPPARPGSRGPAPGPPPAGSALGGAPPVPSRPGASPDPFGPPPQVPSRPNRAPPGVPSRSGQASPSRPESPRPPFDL
Description: The lipid nanotube (NT)-stimulated malachite green assays were performed in 96-well plates at 37°C. The final reaction consisted of 100 nM Dyn1, 25 μM GTP, and 300 μM lipid nanotubes. The assay and reagent preparations were performed according to our published protocol. All general chemicals were purchased from Sigma-Aldrich (St. Louis, MO). Compounds tested in the malachite green assay were purchased from Chembridge and ChemDiv (both located in San Diego, CA).
Compound 24 was compared with the two commercially available dynamin inhibitors, Dynasore and Dyngo-4a, in a dose-response assay measuring inhibition of basal GTPase activity under high salt (150 mM KCl) conditions. The concentration of inhibitors ranged from 1 nM to 100 μM. […] Therefore, to more closely parallel previous studies we tested both commercial inhibitors in comparison to compound 24 for their effects on dynamin’s stimulated GTPase activity. Assays were performed in the presence of PI(4,5)P2-containing lipid nanotubes (NT), whose diameter (~ 20 nm) resembles the neck of an invaginated coated pit, using the malachite green assay.

Dynamin-1 (Dyn1) [3] = biological target: T1, Dynamin-1 (Dyn1); experiment: Transcreener GDP fluorescence polarization assay, basal GTPase activity; assay type: biochemical; settings: for inhibition of basal GTPase activity (result in words): high salt (150 mM KCl), inhibitor 1 nM to 100 μM
Description: Dynamin-1 (Dyn1) was expressed in Sf9 (Spodoptera frugiperda, GIBCO-BRL, Gaithersburg, MD) insect cells and purified by affinity chromatography, as previously described. Nucleotide-free protein aliquots were stored in assay buffer containing 20 mM HEPES, 150 mM KCl, 1 mM EDTA, 1 mM EGTA and 1 mM DTT at pH 7.4. The aliquots were flash frozen in liquid nitrogen and stored in -80°C in 5% v/v glycerol. Prior to running assays, frozen aliquots of Dyn1 were thawed and centrifuged at 100,000 g for 15 minutes to remove any aggregates. Dyn1 concentration was determined by measuring its absorbance at 280 nm with a UV/Vis spectrophotometer (Beckman Coulter Inc.) using a molar absorptivity coefficient of 73,800 M^-1 cm^-1.
The Transcreener® GDP FP (BellBrook Labs) assay is an immune-competition assay based on a mouse monoclonal antibody that selectively binds Alexa633-conjugated GDP over GTP. The preformed Alexa633-GDP antibody complex is added at the end of the reaction, and the GDP generated displaces bound Alexa633 fluorescent tracer, resulting in a decrease in its far-red fluorescence polarization (FP). The assay detects GDP production with high sensitivity at low substrate concentrations and has been used to develop an HTS compatible assay for the enzymatic activity of ARFGAP [20]. Stocks of 5 mM GTP, 10x Stop & Detect Buffer B, 400 nM GDP Alexa633 Tracer, and 3100 μg/mL GDP antibody were purchased from BellBrook Labs (Madison, WI). Assays were performed in Corning 384-well plates at room temperature.
All assays were conducted in the endpoint format, which measures total GDP production after 60 minutes of incubation at room temperature. […] The plate was then read for fluorescence polarization in millipolarization units (mP) using an EnVision multi-modal microplate reader (PerkinElmer, Inc.). […]
For the confirmation screen and dose response curves, the data were analyzed by normalizing the sample GDP released to the control GDP released using the following equation: normalizedGTPaseactivity=sampleGDPreleased/controlGDPreleased×100 (4)

dynamin = settings: low salt, 20 nM dynamin; read-out: IC50, stimulated GTPase activity, sonicated PS liposomes; cited from earlier work

IC50 (Dynamin-1 (Dyn1) [2])	IC50 (Dynamin-1 (Dyn1) [3]; 50 nM Dyn1, 10 μM GTP, 60 min, room temperature, 11-point dose response 1 nM to 100 μM, read-out: IC50, inhibition of basal GTPase activity of Dyn1)	Structure (SMILES)	inhibition of endocytosis (result in words) [1]	inhibition of basal GTPase activity (result in words) (Dynamin-1 (Dyn1) [3])	IC50 (dynamin)
83.5 µM	–	O=C(N/N=C/c1ccc(O)c(O)c1)c1cc2ccccc2cc1O [Dynasore]	continue to inhibit endocytosis	do not appear to inhibit basal GTPase activity even at high concentrations; also recorded: neither was able to inhibit basal GTPase activity	0.4 µM
6.4 µM and ~6 µM	0.58 µM and ~0.6 µM	CN(C)c1ccc(/C=C/C=C2/SC(=S)NC2=O)cc1 [compound 24]	–	–	–

Structure (SMILES)	IC50 (Dynamin-1 (Dyn1) [2])	IC50 (Dynamin-1 (Dyn1) [3]; 50 nM Dyn1, 10 μM GTP, 60 min, room temperature, 11-point dose response 1 nM to 100 μM, read-out: IC50, inhibition of basal GTPase activity of Dyn1)	inhibition of endocytosis (result in words) [1]	inhibition of basal GTPase activity (result in words) (Dynamin-1 (Dyn1) [3])	IC50 (dynamin)
O=C(N/N=C/c1cc(O)c(O)cc1O)c1cc2ccccc2cc1O [Dyngo-4a]	45.4 µM	–	continue to inhibit endocytosis	do not appear to inhibit basal GTPase activity even at high concentrations; also recorded: neither was able to inhibit basal GTPase activity	12 µM
